SMILES strings stand for the structures. Where a name gives a salt, the structure may show the parent alone.

The target in this assay is T1, Rat GnRH Receptor (Rattus norvegicus, UniProt P30969).
T1 construct: from tissue; host or cells: anterior pituitary of male Wistar rats (8 weeks old), membrane fraction
T1 sequence (P30969 1-327): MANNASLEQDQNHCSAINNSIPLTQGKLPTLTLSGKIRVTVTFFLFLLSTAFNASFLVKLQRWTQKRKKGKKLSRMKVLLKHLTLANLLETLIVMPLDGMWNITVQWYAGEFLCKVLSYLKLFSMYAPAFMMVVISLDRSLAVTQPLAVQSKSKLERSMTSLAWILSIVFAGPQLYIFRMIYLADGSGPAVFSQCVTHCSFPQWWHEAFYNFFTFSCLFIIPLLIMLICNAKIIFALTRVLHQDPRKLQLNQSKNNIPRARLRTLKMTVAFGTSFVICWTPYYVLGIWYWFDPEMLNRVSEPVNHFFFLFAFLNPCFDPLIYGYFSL
The assay is described as follows: ^125 I-leuprolerin binding inhibition, rat anterior pituitary membrane fraction. Further details: species or system rat (Wistar). The note with it: 4° C. for 90 minutes, read-out: GnRH-receptor binding inhibitory activity (IC50, μM) Rat. As to the method:
A tube was filled with 10 μl of an aqueous solution of leuprolerin (3×10^4 M) and lactoperoxidase (0.01 mg/ml) followed by addition of 10 μl of Na^125 I solution (37 MBq). After stirring, 10 μl of 0.001% H2 O2 was added and the reaction was conducted at room temperature for 20 minutes. The reaction was stopped by adding 700 μl of 0.05% TFA and the reaction mixture was subjected to reversed-phase HPLC under the conditions set forth below. ^125 I-leuprolerin was eluted with a retention time of 26-27 minutes. Forty rats (8 weeks old, male) of Wistar strain were decapitated under no anesthesia and the anterior pituitary isolated from each animal was washed with an ice-cooled homogenate buffer (25 mM Tris (tris(hydroxylmethyl)aminomethane)-HCl, 0.3M sucrose, 1 mM EGTA (ethylene-bis(oxyethylenenitrilo)tetraacetic acid), 0.25 mM PMSF (phenylmethylsulfonyl fluoride), 10 U/ml aprotinin, 1 μg/ml pepstatin, 20 μg/ml leupeptin, 100 μg/ml phosphoramidon, 0.03% sodium azide; pH 7.5). The anterior pituitary was suspended in 2 ml of the same homogenate buffer as above and homogenized using a Polytron homogenizer. The homogenate thus prepared was centrifuged at 700 xg for 15 minutes and the supernatant was transferred to an ultracentrifuge cuvette and further centrifuged at 100,000 xg for 1 hour to provide a membrane fraction pellet. This pellet was suspended in 2 ml of an assay buffer (25 mM Tris-HCl, 1 mM ethylenediaminetetraacetic acid (EDTA), 0.1% bovine serum albumin (BSA), 0.25 mM PMSF, 1 μg/ml pepstatin, 20 μg/ml leupeptin, 100 μg/ml phosphoramidon, 0.03% sodium azide; pH 7.5) and centrifuged at 100,000 xg for 1 hour. The membrane fraction recovered as a pellet was resuspended in 10 ml of the same assay buffer as above, distributed into vials, preserved at -80° C., and reconstituted before use. The rat and human membrane fractions prepared under (B) and (D) were respectively diluted with the assay buffer to make 200 μg/ml each and 188 μl aliquots of each dilution were distributed into tubes. The bovine membrane fraction prepared under (C) was diluted with the assay buffer to make 750 μg/ml and 188 μl aliquots of the dilution were distributed into tubes. When the rat anterior pituitary membrane fraction was used, 2 μl of 0.1 mM compound/60% dimethyl sulfoxide (DMSO) and 10 μl of 38 nM ^125 I-leuprolerin were concurrently added. […] For determination of maximum binding, a reaction mixture was prepared by adding 2 μl of 60% DMSO and 10 μl of 38 nM ^125 I-leuprolerin. For determination of non-specific binding, a reaction mixture was prepared using 2 μl of 100 μM leuprolerin/60% DMSO and 10 μl of […] ^125 I-leuprolerin. When the rat and bovine anterior pituitary membrane fractions were used, each reaction was carried out at 4° C. for 90 minutes. On the other hand, when the human GnRH receptor-expressed CHO cell membrane fraction was used, the reaction was conducted at 25° C. for 60 minutes. After completion of the reaction, the reaction mixture was suction-filtered through a polyethyleneimine-treated Whatman glass filter (GF-F) [trademark;whatman]. After filtration, the radioactivity of the residual ^125 I-leuprolerin on the filter was measured using a γ-counter. The computation formula of (TB-SB)/(TB-NSB)×100 (SB=radioactivity bound in the presence of the test compound, TB=maximum amount of radioactivity bound, NSB=amount of radioactivity nonspecifically bound) was calculated to find the binding inhibition rate for the test compound. Moreover, the inhibition rate was determined by varying the concentration of each test compound and the concentration of the compound causing 50% inhibition of binding (IC50 value) was calculated by Hill plot.
For `COc1ccc2c(c1)CCC1(CCCCN1CCCC(CCNC(C)=O)(c1ccccc1)c1ccccc1)C2` (stereo not drawn) [II-37, 3,4-Dihydro-6-methoxy-1'-(6-acetylamino-4,4-diphenylhexyl)spiro[naphthalene-2(1H),2'-piperidine] dihydrochloride], the IC50 (in general, the midpoint of a concentration-inhibition curve) is 0.3 µM.

Regarding `COc1cc2c(cc1OC)CC1(CCCCN1CCCC(CCCNC(=O)COc1ccccc1)(c1ccccc1)c1ccccc1)CC2` (stereo not drawn) [II-61, 3,4-Dihydro-6,7-dimethoxy-1'-{4,4-diphenyl-7-[(phenoxyacetyl)amino]heptyl}spiro[naphthalene-2(1H),2'-piperidine] hydrochloride], the IC50 turned out to be 0.01 µM. `COc1cc2c(cc1OC)CC(N(CCCC(CCCNC(C)=O)(c1ccccc1)c1ccccc1)Cc1ccccc1)CC2` (stereo not drawn) [II-43, 7-Acetylamino-1-{N-benzyl-N-[2-(6,7-dimethoxy-1,2,3,4-tetrahydronaphthyl)]amino}-4,4-diphenylheptane dihydrochloride]: the half-inhibitory concentration (IC50) worked out at 0.2 µM. As for `COc1ccc2c(c1)CCC1(CCCCN1CCCC(CCCNC(C)=O)(c1ccccc1)c1ccccc1)C2` (stereo not drawn) [II-45, 1'-(7-Acetylamino-4,4-diphenylheptyl)-3,4-dihydro-6-methoxyspiro[naphthalene-2(1H),2'-piperidine] dihydrochloride], the figure is 0.08 µM. Turning to `COc1cc2c(cc1OC)CC1(CCCCN1CCCC(CCCNC(C)=O)(c1ccccc1)c1ccccc1)CC2` (stereo not drawn) [II-46, 1'-(7-Acetylamino-4,4-diphenylheptyl)-3,4-dihydro-6,7-dimethoxyspiro[naphthalene-2(1H),2'-piperidine] dihydrochloride], the IC50 is 0.003 µM. The same measure for `COc1cccc2c1CC1(CCCCN1CCCC(CCCNC(C)=O)(c1ccccc1)c1ccccc1)CC2` (stereo not drawn) [II-44, 1'-(7-Acetylamino-4,4-diphenylheptyl)-3,4-dihydro-8-methoxyspiro[naphthalene-2(1H),2'-piperidine] dihydrochloride]: 0.4 µM.
